Experiments:
[1] = test system: human colon cancer HCT116; experiment: Colon cancer model, Experiment A: HCT116 xenograft; type: in vivo, Crl:SHO-PrkdcscidHrhr mice; details: 20 mg/kg i.v. 6 times every second day, 32 day
Method: (§1) Tumor size was measured using electronic calliper, tumor volume was calculated using the formula: (a^2×b)/2, where a=shorter diagonal of the tumor (mm) and b=longer diagonal of the tumor (mm). Inhibition of tumor growth was calculated using the formula:
(§2) TGI[%](Tumor growth inhibition)=(WT/WC)×100−100%
(§3) wherein WT is the average tumor volume in the treatment group, and WC is the average tumor volume in the control group.
On day 0 Crl:SHO-Prkdc^scidHr^hr mice were grafted subcutaneously (s.c.) in the right side with 5×10^6 of HCT116 cells suspended in 0.1 ml of HBSS buffer using syringe with a needle 0.5×25 mm (Bogmark). On the 18 day of the experiment mice were randomized to obtain the average size of tumors in the group of −400 mm^3 and assigned to treatment groups. The treatment groups were administered with the preparations of fusion protein of the invention of Ex. 11^a (35 mg/kg), and rhTRAIL114-281 (20 mg/kg) as a comparison against formulation buffer (5 mM NaH2PO4, 95 mM Na2HPO4, 200 mM NaCl, 5 mM glutathione, 0.1 mM ZnCl2, 10% glycerol, 80 mM saccharose, pH 8.0) as a control. The preparations were administered intravenously (i.v) 6 times once daily every second day. On the 32 day of the experiment mice were sacrificed by disruption of the spinal cord.

[2] = test system: human colon cancer Colo205; experiment: Colon cancer model, Experiment C: Colo205 xenograft; type: in vivo, Crl:SHO-PrkdcscidHrhr mice; details: rhTRAIL 30 mg/kg i.v. 6 times every second day, 33 day
Method: as §1, §2, §3
On day 0 Crl:SHO-Prkdc^scidHr^hr mice were grafted subcutaneously (s.c.) in the right side with 5×10^6 of Colo205 cells suspended in 0.1 ml of HBSS buffer using syringe with a needle 0.5×25 mm (Bogmark). On the 13 day of the experiment mice were randomized to obtain the average size of tumors in the group of ˜115 mm^3 and assigned to treatment groups.
The treatment groups were administered with the preparations of fusion protein of the invention of Ex. 16^a (30 mg/kg), and rhTRAIL114-281 (30 mg/kg) as a comparison against formulation buffer (19 mM NaH2PO4, 81 mM Na2HPO4, 50 mM NaCl, 5 mM glutathione, 0.1 mM ZnCl2, 10% glycerol, pH 7.4) as a control. The preparations were administered intravenously (i.v) 6 times once daily every second day. On the 33 day of the experiment mice were sacrificed by disruption of spinal cord.

human lung cancer A549 = experiment: Lung cancer model, Experiment A: A549 xenograft; type: in vivo; details: A549, Cby.Cg-foxn1(nu)/J mice; 20 mg/kg i.v. 6 times every second day; 35 day
Method: as §1, §2, §3
On day 0 Cby.Cg-foxn1(nu)/J mice were grafted subcutaneously (s.c.) in the right side with 5×10^6 of A549 cells suspended in 0.1 ml of the mixture HBSS:Matrigel 4:1 using syringe with a needle 0.5×25 mm (Bogmark). On the 19 day of the experiment mice were randomized to obtain the average size of tumors in the group of ˜75 mm3 and assigned to treatment groups. The treatment groups were administered with the preparations of fusion protein of the invention of Ex. 11^a (15 mg/kg), and rhTRAIL114-281 (20 mg/kg) as a comparison and water for injections as a control. The preparations were administered intravenously (i.v) 6 times once daily every second day. On the 35 day of the experiment mice were sacrificed by disruption of the spinal cord.

[3] = test system: human lung cancer NCI-H460-Luc2; experiment: Lung cancer model, Experiment C: NCI-H460-Luc2 xenograft; type: in vivo, Crl:SHO-PrkdcscidHrhr mice; details: 20 mg/kg i.v. 6 times every second day, 29 day
Method: as §1, §2, §3
On day 0 Crl:SHO-Prkdc^scidHr^hr mice were grafted subcutaneously (s.c.) in the right side with 5×10^6 of NCI-H460-Luc2 cells suspended in 0.1 ml of HBSS buffer using syringe with a needle 0.5×25 mm (Bogmark). On the 11 day of the experiment mice were randomized to obtain the average size of tumors in the group of ˜100-120 mm^3 and assigned to treatment groups. The treatment groups were administered with the preparations of fusion protein of the invention of Ex. 11^a (40 mg/kg and 30 mg/kg), and rhTRAIL114-281 (20 mg/kg) as a comparison against formulation buffer (19 mM NaH2PO4, 81 mM Na2HPO4, 50 mM NaCl, 5 mM glutathione, 0.1 mM ZnCl2, 10% glycerol, pH 7.4) as a control. The preparations were administered intravenously (i.v) 6 times once daily every second day (in case of fusion protein of the invention of Ex. 11^a first administration at a dose 40 mg/kg and subsequent at 30 mg/kg. On the 29 day of the experiment mice were sacrificed by disruption of the spinal cord.

[4] = test system: human pancreas cancer PANC-1; experiment: Pancreas cancer model, Experiment A: PANC-1 xenograft; type: in vivo, Crl:SHO-PrkdcscidHrhr mice; details: 20 mg/kg i.v. 6 times every second day, 42 day
Method: as §1, §2, §3
On day 0 Crl:SHO-Prkdc^scidHr^hr mice were grafted subcutaneously (s.c.) in the right side with 5×10^6 of PANC-1 cells suspended in 0.1 ml of the mixture HBSS:Matrigel 3:1 using syringe with a needle 0.5×25 mm (Bogmark). On the 31 day of the experiment mice were randomized to obtain the average size of tumors in the group of ˜110 mm^3 and assigned to treatment groups. The treatment groups were administered with the preparations of fusion protein of the invention of Ex. 11^a (40 mg/kg), and rhTRAIL114-281 (20 mg/kg) as a comparison against formulation buffer (19 mM NaH2PO4, 81 mM Na2HPO4, 50 mM NaCl, 5 mM glutathione, 0.1 mM ZnCl2, 10% glycerol, pH 7.4) as a control. The preparations were administered intravenously (i.v) 6 times once daily every second day. On the 42 day of the experiment mice were sacrificed by disruption of the spinal cord.

**Q.** Which results are given for “rhTRAIL114-281: recombinant human soluble TRAIL, amino acids 114-281 of hTRAIL, used as comparative reference”?
**A.** TGI (tumor growth inhibition) relative to the control [1]: 5.6%; TGI (tumor growth inhibition) relative to the control [2]: 18.8%; TGI (tumor growth inhibition) relative to the control (human lung cancer A549): 0%; TGI (tumor growth inhibition) relative to the control [3]: 76%; TGI (tumor growth inhibition) relative to the control [4]: 26%

— US20140377216A1, “ANTICANCER FUSION PROTEIN” (ADAMED SP. Z.O.O., priority 2011, published 2014)
